Reference: patent US10471046B2, “Method for treating, preventing, or reducing the risk of skin infection” (Melinta Subsidiary Corp., priority 2014, dated 2019)
Converted amounts (≈) assume the structure as drawn. Like-named read-outs stand apart in the source and are kept apart here.

Tested on: S. aureus
Assay: Minimum inhibitory concentrations (MICs) for S. aureus of exemplary compounds (Table 2)
Type: cell-based
Conditions: Staphylococcus aureus, read-out: MICs
Method in brief: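 Growth of S. aureus in media with or without compound, by broth microdilution in microtiter trays following NCCLS M7-A5 guidelines. Values are MICs in μg/mL.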

[1] = minimum inhibitory concentrations for S. aureus

SMILES | MIC [1] [µg/mL] | MIC [µg/mL]
CC(=O)NC[C@H]1CN(c2ccc(-c3ccc(CSc4nncs4)cc3)c(F)c2)C(=O)O1 [Compound 2029, N-{3-[2-Fluoro-4′-([1,3,4]thiadiazol-2-ylsulfanylmethyl)-biphenyl-4-yl]-2-oxo-oxazolidin-5-(S)-ylmethyl}-acetamide] | 0.25 (≈ 0.545 µM) | –
COc1cc(CN(Cc2ccc(-c3ccc(N4C[C@H](CNC(C)=O)OC4=O)cc3F)cc2)Cc2ccc(O)c(OC)c2)ccc1O [Compound 4037, N-[3-(4′-{[Bis-(4-hydroxy-3-methoxy-benzyl)-amino]-methyl}-2-fluoro-biphenyl-4-yl)-2-oxo-oxazolidin-5-(S)-ylmethyl]-acetamide] | 2 (≈ 3.18 µM) | –
CC(=O)NC[C@H]1CN(c2ccc(-c3ccc(CNS(=O)(=O)c4ccc(C(F)(F)F)cc4)cc3)c(F)c2)C(=O)O1 [Compound 2058, N-(3-{2-Fluoro-4′-[(4-trifluoromethyl-benzenesulfonylamino)-methyl]-biphenyl-4-yl}-2-oxo-oxazolidin-5-(S)-ylmethyl)-acetamide] | 32 (≈ 56.6 µM) | –
CC(=O)NC[C@H]1CN(c2ccc(-c3ccc([C@@H](NCc4ccncc4)C(N)=O)cc3)c(F)c2)C(=O)O1 [Compound 4184, 2-{4′-[5-(S)-(Acetylamino-methyl)-2-oxo-oxazolidin-3-yl]-2′-fluoro-biphenyl-4-yl}-2-(R)-[(pyridin-4-ylmethyl)-amino]-acetamide] | 16 (≈ 32.6 µM) | –
CC(=O)NC[C@H]1CN(c2ccc(-c3ccc(C(=O)NCCc4cnc[nH]4)c(F)c3)c(F)c2)C(=O)O1 [Compound 4191, 4′-[5-(S)-(Acetylamino-methyl)-2-oxo-oxazolidin-3-yl]-3,2′-difluoro-biphenyl-4-carboxylic acid [2-(3H-imidazol-4-yl)-ethyl]-amide] | 1 (≈ 2.07 µM) | –
CC(=O)NC[C@H]1CN(c2ccc(-c3ccc(COCc4cc[n+]([O-])cc4)cc3)c(F)c2)C(=O)O1 [Compound 4198, N-{3-[2-Fluoro-4′-(1-oxy-pyridin-4-ylmethoxymethyl)-biphenyl-4-yl]-2-oxo-oxazolidin-5-(S)-ylmethyl}-acetamide] | 2 (≈ 4.3 µM) | –
CC(=O)NC[C@H]1CN(c2ccc(-c3ccc(Cn4cnc(N)n4)cc3)c(F)c2)C(=O)O1 [Compound 1069, N-{3-[4′-(3-Amino-[1,2,4]triazol-1-ylmethyl)-2-fluoro-biphenyl-4-yl]-2-oxo-oxazolidin-5-(S)-ylmethyl}-acetamide] | 1 (≈ 2.36 µM) | –
CC(=O)NC[C@H]1CN(c2ccc(-c3ccc(CNCc4ccsc4)cc3)c(F)c2)C(=O)O1 [Compound 4086, N-[3-(2-Fluoro-4′-{[(thiophen-3-ylmethyl)-amino]-methyl}-biphenyl-4-yl)-2-oxo-oxazolidin-5-(S)-ylmethyl]-acetamide] | 4 (≈ 8.82 µM) | –
COc1ccc(CNCc2ccc(-c3ccc(N4C[C@H](CNC(C)=O)OC4=O)cc3F)cc2)cn1 [Compound 4054, N-[3-(2-Fluoro-4′-{[(6-methoxy-pyridin-3-ylmethyl)-amino]-methyl}-biphenyl-4-yl)-2-oxo-oxazolidin-5-(S)-ylmethyl]-acetamide] | 1 (≈ 2.09 µM) | –
CC(=O)NC[C@H]1CN(c2ccc(-c3ccc(CNCCN4CCCC4)cc3)c(F)c2)C(=O)O1 [Compound 4259, N-(3-{2-Fluoro-4′-[(2-pyrrolidin-1-yl-ethylamino)-methyl]-biphenyl-4-yl}-2-oxo-oxazolidin-5-(S)-ylmethyl)-acetamide] | 4 (≈ 8.8 µM) | –
CC(=O)NC[C@H]1CN(c2ccc(-c3cc(C)c(CNCc4ccncc4)cc3C)c(F)c2)C(=O)O1 [Compound 4176, N-[3-(2-Fluoro-2′,5′-dimethyl-4′-{[(pyridin-4-ylmethyl)-amino]-methyl}-biphenyl-4-yl)-2-oxo-oxazolidin-5-(S)-ylmethyl]-acetamide] | 128 (≈ 269 µM) | –
CC(=O)NC[C@H]1CN(c2ccc(-c3ccc(CN4CC[S+]([O-])CC4)cc3)c(F)c2)C(=O)O1 [Compound 1065, N-{3-[2-Fluoro-4′-(1-oxo-1 lambda*4*-thiomorpholin-4-ylmethyl)-biphenyl-4-yl]-2-oxo-oxazolidin-5-(S)-ylmethyl}-acetamide] | 2 (≈ 4.35 µM) | –
CC(=O)NC[C@H]1CN(c2ccc(-c3ccc(CNCc4cc(C)oc4C)cc3)c(F)c2)C(=O)O1 [Compound 4103, N-[3-(4′-{[(2,5-Dimethyl-furan-3-ylmethyl)-amino]-methyl}-2-fluoro-biphenyl-4-yl)-2-oxo-oxazolidin-5-(S)-ylmethyl]-acetamide] | 8 (≈ 17.2 µM) | –
CC(=O)NC[C@H]1CN(c2ccc(-c3ccc(Cn4cnc5c(=O)[nH]cnc54)cc3)c(F)c2)C(=O)O1 [Compound 1111, N-{3-[2-Fluoro-4′-(6-oxo-1,6-dihydro-purin-9-ylmethyl)-biphenyl-4-yl]-2-oxo-oxazolidin-5-(S)-ylmethyl}-acetamide] | 2 (≈ 4.2 µM) | –
CC(=O)NC[C@H]1CN(c2ccc(-c3ccc(CNCCc4ccc(S(N)(=O)=O)cc4)cc3)c(F)c2)C(=O)O1 [Compound 4094, N-[3-(2-Fluoro-4′-{[2-(4-sulfamoyl-phenyl)-ethylamino]-methyl}-biphenyl-4-yl)-2-oxo-oxazolidin-5-(S)-ylmethyl]-acetamide] | 2 (≈ 3.7 µM) | –
CC(=O)NC[C@H]1CN(c2ccc(-c3ccc(Cc4c[nH]cn4)cc3)c(F)c2)C(=O)O1 [Compound 1086, N-{3-[2-Fluoro-4′-(1H-imidazol-4-ylmethyl)-biphenyl-4-yl]-2-oxo-oxazolidin-5-(S)-ylmethyl}-acetamide] | – | 0.5 (≈ 1.22 µM)
CCc1ccc(CNCc2ccc(-c3ccc(N4C[C@H](CNC(C)=O)OC4=O)cc3F)cc2)s1 [Compound 4162, N-[3-(4′-{[(5-Ethyl-thiophen-2-ylmethyl)-amino]-methyl}-2-fluoro-biphenyl-4-yl)-2-oxo-oxazolidin-5-(S)-ylmethyl]-acetamide] | 2 (≈ 4.15 µM) | –
CC(=O)NC[C@H]1CN(c2ccc(-c3ccc(CNCc4c(CO)cnc(C)c4O)cc3)c(F)c2)C(=O)O1 [Compound 4095, N-[3-(2-Fluoro-4′-{[(3-hydroxy-5-hydroxymethyl-2-methyl-pyridin-4-ylmethyl)-amino]-methyl}-biphenyl-4-yl)-2-oxo-oxazolidin-5-(S)-ylmethyl]-acetamide] | 4 (≈ 7.87 µM) | –
CC(=O)NC[C@H]1CN(c2ccc(-c3ccc(CNCc4sccc4C)cc3)c(F)c2)C(=O)O1 [Compound 4099, N-[3-(2-Fluoro-4′-{[(3-methyl-thiophen-2-ylmethyl)-amino]-methyl}-biphenyl-4-yl)-2-oxo-oxazolidin-5-(S)-ylmethyl]-acetamide] | 4 (≈ 8.55 µM) | –
CC(=O)NC[C@H]1CN(c2ccc(-c3ccc(CN(C)Cc4cccnc4)cc3)c(F)c2)C(=O)O1 [Compound 4047, N-(3-{2-Fluoro-4′-[(methyl-pyridin-3-ylmethyl-amino)-methyl]-biphenyl-4-yl}-2-oxo-oxazolidin-5-(S)-ylmethyl)-acetamide] | 2 (≈ 4.32 µM) | –
CC(=O)NC[C@H]1CN(c2ccc(-c3ccc(CCn4ccnn4)cc3)c(F)c2)C(=O)O1 [Compound 1001, N-{3-[2-Fluoro-4′-(2-[1,2,3]triazol-1-yl-ethyl)-biphenyl-4-yl]-2-oxo-oxazolidin-5-(S)-ylmethyl}-acetamide] | 2 (≈ 4.72 µM) | –
CC(=O)NC[C@H]1CN(c2ccc(-c3ccc(CNC(=O)[C@@H]4C[C@@H](O)CN4)cc3)c(F)c2)C(=O)O1 [Compound 4301, 4-(R)-Hydroxy-pyrrolidine-2-(S)-carboxylicacid {4′-[5-(S)-(acetylamino-methyl)-2-oxo-oxazolidin-3-yl]-2′-fluoro-biphenyl-4-ylmethyl}-amide] | 8 (≈ 17 µM) | –
